Source: patent US12453769B2 (priority 2019, dated 2025)

Tested on: gE-specific IFN-γ
Set-up: species or system C57BL/6(N) mice
Conditions: mouse, in vivo

QS-21
induced production level of gE-specific IFN-γ (ELISPOT spot): the best effect
